Test results from article PMC8387736 (Drug Design, Development and Therapy, 2021).
Where two headings read alike, the source gives them in different places.

Experiments:
[1] = rats
[2] = test system: CYP3As; assay: Inhibition of midazolam metabolism by avitinib in human liver microsomes; assay type: in vitro ADME
[3] = target: T1, CYP1A2 (Homo sapiens, UniProt P05177); conditions: HLMs
T1 sequence (P05177 1-516): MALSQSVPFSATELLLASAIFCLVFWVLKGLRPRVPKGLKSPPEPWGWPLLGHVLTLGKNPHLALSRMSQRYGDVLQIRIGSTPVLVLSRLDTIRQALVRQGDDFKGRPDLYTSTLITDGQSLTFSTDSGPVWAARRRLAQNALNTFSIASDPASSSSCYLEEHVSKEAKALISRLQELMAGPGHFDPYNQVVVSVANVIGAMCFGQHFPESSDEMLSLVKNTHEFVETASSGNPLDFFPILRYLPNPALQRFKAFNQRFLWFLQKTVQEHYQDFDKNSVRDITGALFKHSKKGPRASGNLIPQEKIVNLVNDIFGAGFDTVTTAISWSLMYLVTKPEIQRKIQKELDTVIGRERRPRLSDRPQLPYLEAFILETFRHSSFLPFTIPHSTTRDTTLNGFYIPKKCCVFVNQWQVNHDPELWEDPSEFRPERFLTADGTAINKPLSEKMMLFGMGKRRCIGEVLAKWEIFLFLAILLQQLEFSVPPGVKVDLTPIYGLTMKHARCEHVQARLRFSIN

[4] = target: T2, CYP2B6 (Homo sapiens, UniProt P20813); conditions: HLMs
T2 sequence (P20813 1-491): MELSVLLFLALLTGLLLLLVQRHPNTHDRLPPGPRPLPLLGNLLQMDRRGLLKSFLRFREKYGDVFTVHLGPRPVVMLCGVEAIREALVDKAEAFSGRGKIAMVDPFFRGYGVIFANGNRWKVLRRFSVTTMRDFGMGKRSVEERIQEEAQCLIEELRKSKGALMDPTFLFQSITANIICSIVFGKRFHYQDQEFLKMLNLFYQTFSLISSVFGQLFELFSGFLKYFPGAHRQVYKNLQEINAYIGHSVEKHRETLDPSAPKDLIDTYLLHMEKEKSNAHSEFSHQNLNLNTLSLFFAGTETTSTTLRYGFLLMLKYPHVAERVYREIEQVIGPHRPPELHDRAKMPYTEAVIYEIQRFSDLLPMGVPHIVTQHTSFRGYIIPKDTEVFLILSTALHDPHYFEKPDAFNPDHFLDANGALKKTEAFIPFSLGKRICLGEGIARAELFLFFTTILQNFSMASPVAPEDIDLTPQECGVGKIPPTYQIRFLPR

[5] = target: T3, CYP2C9 (Homo sapiens, UniProt P11712); conditions: HLMs
[6] = target: T4, CYP2D6 (Homo sapiens, UniProt P10635); conditions: HLMs
[7] = target: T5, CYP2E1 (Homo sapiens, UniProt P05181); conditions: HLMs
[8] = target: T1, CYP1A2; assay: biochemical
[9] = target: T2, CYP2B6; assay: biochemical
[10] = target: T3, CYP2C9; assay: biochemical
[11] = target: T4, CYP2D6; assay: biochemical
[12] = target: T5, CYP2E1; assay: biochemical
[13] = target: T6, cyp2b1 (Rattus norvegicus, UniProt P00176); assay: Inhibition of bupropion metabolism by avitinib in rat liver microsomes
T6 sequence (P00176 1-491): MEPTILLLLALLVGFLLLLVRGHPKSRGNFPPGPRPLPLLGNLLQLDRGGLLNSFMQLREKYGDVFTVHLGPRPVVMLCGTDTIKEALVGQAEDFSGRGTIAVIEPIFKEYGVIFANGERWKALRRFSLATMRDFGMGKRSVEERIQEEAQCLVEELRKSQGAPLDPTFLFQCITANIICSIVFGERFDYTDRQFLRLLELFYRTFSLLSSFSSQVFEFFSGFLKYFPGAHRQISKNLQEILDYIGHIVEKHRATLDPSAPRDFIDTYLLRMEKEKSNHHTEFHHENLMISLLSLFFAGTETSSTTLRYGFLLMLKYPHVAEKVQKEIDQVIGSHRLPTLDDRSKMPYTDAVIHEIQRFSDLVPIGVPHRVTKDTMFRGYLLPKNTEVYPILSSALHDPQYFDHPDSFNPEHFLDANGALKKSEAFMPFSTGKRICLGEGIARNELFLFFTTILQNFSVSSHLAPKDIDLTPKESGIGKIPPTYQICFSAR

[14] = test system: cyp3as; assay: Inhibition of midazolam metabolism by avitinib in rat liver microsomes
[15] = target: T7, cyp1a2 (Rattus norvegicus, UniProt P04799); assay: Inhibition of phenacetin metabolism by avitinib in rat liver microsomes
T7 sequence (P04799 1-513): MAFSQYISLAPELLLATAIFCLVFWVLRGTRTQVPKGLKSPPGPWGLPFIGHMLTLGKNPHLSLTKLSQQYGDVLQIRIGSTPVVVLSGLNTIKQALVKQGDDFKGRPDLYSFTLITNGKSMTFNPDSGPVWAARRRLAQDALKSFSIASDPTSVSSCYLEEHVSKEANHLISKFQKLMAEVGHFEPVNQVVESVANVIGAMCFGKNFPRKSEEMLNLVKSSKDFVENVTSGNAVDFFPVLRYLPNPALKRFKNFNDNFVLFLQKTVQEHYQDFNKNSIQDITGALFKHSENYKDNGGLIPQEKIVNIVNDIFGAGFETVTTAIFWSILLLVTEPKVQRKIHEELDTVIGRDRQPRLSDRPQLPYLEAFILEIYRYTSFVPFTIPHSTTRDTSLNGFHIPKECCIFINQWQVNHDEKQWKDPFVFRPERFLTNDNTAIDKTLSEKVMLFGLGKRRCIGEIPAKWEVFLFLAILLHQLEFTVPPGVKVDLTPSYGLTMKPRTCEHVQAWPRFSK

[16] = target: T8, cyp2c11 (Rattus norvegicus, UniProt P08683); assay: Inhibition of tolbutamide metabolism by avitinib in rat liver microsomes
T8 sequence (P08683 1-500): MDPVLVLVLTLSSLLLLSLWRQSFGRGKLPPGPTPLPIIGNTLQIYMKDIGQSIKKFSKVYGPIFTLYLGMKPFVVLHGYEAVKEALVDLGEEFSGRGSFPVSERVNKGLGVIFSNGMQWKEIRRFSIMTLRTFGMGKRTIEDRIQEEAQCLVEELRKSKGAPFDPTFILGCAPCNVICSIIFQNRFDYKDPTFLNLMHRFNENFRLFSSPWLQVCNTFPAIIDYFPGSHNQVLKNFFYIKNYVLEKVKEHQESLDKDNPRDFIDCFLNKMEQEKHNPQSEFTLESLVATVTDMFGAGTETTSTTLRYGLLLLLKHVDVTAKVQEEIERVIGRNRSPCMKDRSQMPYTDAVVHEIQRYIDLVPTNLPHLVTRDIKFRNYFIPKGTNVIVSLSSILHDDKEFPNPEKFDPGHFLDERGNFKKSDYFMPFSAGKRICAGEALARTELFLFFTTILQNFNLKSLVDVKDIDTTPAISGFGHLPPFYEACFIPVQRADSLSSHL

[17] = target: cyp2e1 (Rattus norvegicus, UniProt P05182); assay: Inhibition of chlorzoxazone metabolism by avitinib in rat liver microsomes
[18] = target: T9, cyp2d1 (Rattus norvegicus, UniProt P10633); assay: Inhibition of dextromethorphan metabolism by avitinib in rat liver microsomes
T9 sequence (P10633 1-504): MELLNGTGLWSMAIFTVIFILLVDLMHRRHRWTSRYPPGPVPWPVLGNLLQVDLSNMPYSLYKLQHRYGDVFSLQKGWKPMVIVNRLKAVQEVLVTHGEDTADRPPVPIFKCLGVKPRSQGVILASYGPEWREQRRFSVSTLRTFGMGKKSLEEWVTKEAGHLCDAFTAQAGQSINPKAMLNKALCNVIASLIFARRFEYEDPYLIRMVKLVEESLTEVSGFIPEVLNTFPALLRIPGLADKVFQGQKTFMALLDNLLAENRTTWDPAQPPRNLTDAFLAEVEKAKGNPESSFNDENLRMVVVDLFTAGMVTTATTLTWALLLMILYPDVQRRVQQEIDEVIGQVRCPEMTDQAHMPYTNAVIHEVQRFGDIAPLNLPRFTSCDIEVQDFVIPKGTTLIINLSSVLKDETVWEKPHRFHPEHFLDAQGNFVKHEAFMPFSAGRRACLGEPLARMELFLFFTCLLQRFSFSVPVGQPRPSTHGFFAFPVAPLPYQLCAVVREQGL

[19] = avitinib 30 mg/kg multiple-doses or single-dose vs control
[20] = multiple-doses 30 mg/kg avitinib (7 days)

T5 sequence (P05181 whole entry): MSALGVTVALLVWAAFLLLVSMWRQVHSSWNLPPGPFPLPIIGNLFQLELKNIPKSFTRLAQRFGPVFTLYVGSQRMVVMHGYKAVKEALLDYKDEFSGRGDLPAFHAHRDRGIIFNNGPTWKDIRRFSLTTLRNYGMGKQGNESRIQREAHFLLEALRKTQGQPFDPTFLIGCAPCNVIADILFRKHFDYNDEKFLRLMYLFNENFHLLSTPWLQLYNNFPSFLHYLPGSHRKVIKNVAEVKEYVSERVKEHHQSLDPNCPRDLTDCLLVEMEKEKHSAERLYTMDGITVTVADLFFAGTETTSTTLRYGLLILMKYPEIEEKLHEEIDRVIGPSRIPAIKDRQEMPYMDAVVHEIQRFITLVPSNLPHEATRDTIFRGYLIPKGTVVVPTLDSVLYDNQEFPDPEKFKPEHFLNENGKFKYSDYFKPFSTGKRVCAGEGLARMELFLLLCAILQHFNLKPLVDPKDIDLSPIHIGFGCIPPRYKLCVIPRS
T4 sequence (P10635 whole entry): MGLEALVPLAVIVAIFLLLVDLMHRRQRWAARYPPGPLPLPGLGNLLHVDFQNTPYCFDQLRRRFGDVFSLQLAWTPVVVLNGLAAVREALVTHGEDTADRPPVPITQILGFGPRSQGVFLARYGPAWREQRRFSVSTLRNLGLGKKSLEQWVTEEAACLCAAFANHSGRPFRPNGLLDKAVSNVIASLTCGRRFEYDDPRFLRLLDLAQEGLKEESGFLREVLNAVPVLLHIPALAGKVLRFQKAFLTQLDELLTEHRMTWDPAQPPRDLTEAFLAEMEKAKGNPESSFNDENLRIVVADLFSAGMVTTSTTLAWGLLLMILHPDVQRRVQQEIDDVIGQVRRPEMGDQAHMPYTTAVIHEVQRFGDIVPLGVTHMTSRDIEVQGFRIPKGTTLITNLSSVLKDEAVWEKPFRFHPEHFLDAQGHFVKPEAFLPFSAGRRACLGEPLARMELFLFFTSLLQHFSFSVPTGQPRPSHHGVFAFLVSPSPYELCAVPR
Chain of cyp2e1 (P05182 whole entry): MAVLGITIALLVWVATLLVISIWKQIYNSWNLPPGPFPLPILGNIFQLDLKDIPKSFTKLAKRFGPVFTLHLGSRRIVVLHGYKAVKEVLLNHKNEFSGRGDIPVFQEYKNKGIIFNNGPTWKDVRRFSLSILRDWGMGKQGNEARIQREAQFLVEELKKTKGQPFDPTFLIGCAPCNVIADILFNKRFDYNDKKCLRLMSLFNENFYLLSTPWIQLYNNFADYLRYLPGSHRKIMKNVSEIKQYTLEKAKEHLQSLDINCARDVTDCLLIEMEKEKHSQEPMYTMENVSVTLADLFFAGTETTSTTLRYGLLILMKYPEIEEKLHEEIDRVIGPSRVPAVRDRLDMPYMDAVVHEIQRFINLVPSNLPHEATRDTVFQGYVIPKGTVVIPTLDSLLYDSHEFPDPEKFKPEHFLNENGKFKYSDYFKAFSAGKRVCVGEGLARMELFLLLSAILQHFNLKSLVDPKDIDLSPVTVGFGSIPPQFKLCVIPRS
T3 sequence (P11712 whole entry): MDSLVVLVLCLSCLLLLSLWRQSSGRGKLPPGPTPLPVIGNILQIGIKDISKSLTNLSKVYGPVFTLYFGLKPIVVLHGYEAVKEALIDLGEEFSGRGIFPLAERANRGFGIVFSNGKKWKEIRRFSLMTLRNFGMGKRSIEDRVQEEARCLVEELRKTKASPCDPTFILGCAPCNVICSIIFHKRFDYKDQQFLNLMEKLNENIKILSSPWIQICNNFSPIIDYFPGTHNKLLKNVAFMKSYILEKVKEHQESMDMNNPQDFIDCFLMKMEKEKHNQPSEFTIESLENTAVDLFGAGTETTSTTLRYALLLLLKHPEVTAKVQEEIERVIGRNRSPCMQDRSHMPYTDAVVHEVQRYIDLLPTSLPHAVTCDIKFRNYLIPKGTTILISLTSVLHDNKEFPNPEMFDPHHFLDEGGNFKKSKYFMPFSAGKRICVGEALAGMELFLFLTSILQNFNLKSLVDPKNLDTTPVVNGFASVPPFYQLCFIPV

COc1ccc2c(c1)[C@]13CCCC[C@@H]1[C@H](C2)N(C)CC3 [Dextromethorphan]
change in Tmax values after avitinib (in words) [1, 19]: No significant changes | reduction of CLz/F compared with control group [1, 20]: 82.22% | reduction of Vz/F compared with control group [1, 20]: 73.53% | reduction of CLz/F compared with control group ([1]; single-dose 30 mg/kg avitinib): 67.78% | reduction of Vz/F compared with control group ([1]; single-dose 30 mg/kg avitinib): 69.7%

Cc1ncc2n1-c1ccc(Cl)cc1C(c1ccccc1F)=NC2 [Midazolam]
difference in Cmax after avitinib (in words) [1, 19]: No significant difference

CCCCNC(=O)NS(=O)(=O)c1ccc(C)cc1 [Tolbutamide]
difference in Cmax after avitinib (in words) [1, 19]: No significant difference

CCOc1ccc(NC(C)=O)cc1 [Phenacetin]
change in t1/2 values after avitinib (in words) [1, 19]: no significant change | reduction of CLz/F compared with control group [1, 20]: 63.17% | reduction of Vz/F compared with control group [1, 20]: 63.09% | reduction of CLz/F compared with control group ([1]; single-dose 30 mg/kg avitinib): 39.52%

C=CC(=O)Nc1cccc(Oc2nc(Nc3ccc(N4CCN(C)CC4)c(F)c3)nc3[nH]ccc23)c1 [avitinib, Avitinib]
inhibitory effect on CYP3As (grade in words) ([2]; HLMs): weak | IC50 at 30 min ([2]; human, human liver microsomes, probe midazolam (5 μM)): 59.6 µM | inhibitory effect on CYP1A2 (grade in words) [3]: weak | inhibitory effect on CYP2B6 (grade in words) [4]: weak | inhibitory effect on CYP2C9 (grade in words) [5]: moderate | inhibitory effect on CYP2D6 (grade in words) [6]: weak | inhibitory effect on CYP2E1 (grade in words) [7]: weak | IC50 [8]: 48.4 µM | IC50 [9]: 22.6 µM | IC50 [10]: 6.91 µM | IC50 [11]: 56.6 µM | IC50 [12]: 57.1 µM | IC50 [13]: 6.39 µM | inhibitory effect on cyp2b1 (grade in words) ([13]; RLMs): moderate | inhibitory effect on cyp3as (grade in words) ([14]; RLMs): weak | IC50 at 30 min ([14]; male, Sprague-Dawley, rat, rat liver microsomes, probe midazolam (5 μM)): 27.6 µM | IC50 [15]: 15.8 µM | inhibitory effect on cyp1a2 (grade in words) ([15]; RLMs): weak | IC50 [16]: 42.2 µM | inhibitory effect on cyp2c11 (grade in words) ([16]; RLMs): weak | IC50 [17]: 23.2 µM | inhibitory effect on cyp2e1 (grade in words) ([17]; RLMs): weak | IC50 [18]: 44.4 µM | inhibitory effect on cyp2d1 (grade in words) ([18]; RLMs): weak

CC(NC(C)(C)C)C(=O)c1cccc(Cl)c1 (stereo not drawn) [Bupropion]
reduction of CLz/F compared with control group [1, 20]: 57.54% | reduction of Vz/F compared with control group [1, 20]: 62.74% | reduction of CLz/F compared with control group ([1]; single-dose 30 mg/kg avitinib): 53.96% | reduction of Vz/F compared with control group ([1]; single-dose 30 mg/kg avitinib): 64.59%
